One assay has as its target KRas (Homo sapiens (Human), UniProt P01116). Description: KRas GDP HTRF (BODIPY-GDP exchange TR-FRET). Format: biochemical. The method, boiled down: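 Inhibition of SOS1-mediated exchange of BODIPY-GDP on KRAS G12D, started with 3 nM recombinant human SOS1 and 300 nM BODIPY-GDP and read after 60 min. TR-FRET excitation 337 nm, ratio 520/490 nm ×10,000. IC50 from 4-parameter Hill fit of normalized data.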
A general note: TR-FRET usually uses a lanthanide donor and a delayed reading to cut background.

The next assay deals with SW480 cells. Description: SW480 proliferation assay. Format: cell-based. Particulars: read-out: SW480 Prolif IC50 (G12V).
For another assay, the system named is PC-9 cells. Nature of the assay: PC9 proliferation assay. Format: cell-based, human. Particulars: read-out: PC9 Prolif IC50 (G12V).
Another assay has as its target KRas(G12V) (Homo sapiens (Human), UniProt P01116, G12V). Nature of the assay: KRas(G12V) GDP HTRF (BODIPY-GDP exchange TR-FRET). Format: biochemical.

Read-outs that look alike come from different tables or passages of the source.

KRas(G12V), sequence (P01116-2 other isoform, or with tags, fused parts or gaps G12V): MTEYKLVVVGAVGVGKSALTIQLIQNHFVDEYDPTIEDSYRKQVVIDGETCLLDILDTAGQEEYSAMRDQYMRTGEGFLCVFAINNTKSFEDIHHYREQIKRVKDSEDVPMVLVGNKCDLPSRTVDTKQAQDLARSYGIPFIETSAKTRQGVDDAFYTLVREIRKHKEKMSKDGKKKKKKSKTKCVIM
KRas, sequence (P01116-2 other isoform, or with tags, fused parts or gaps): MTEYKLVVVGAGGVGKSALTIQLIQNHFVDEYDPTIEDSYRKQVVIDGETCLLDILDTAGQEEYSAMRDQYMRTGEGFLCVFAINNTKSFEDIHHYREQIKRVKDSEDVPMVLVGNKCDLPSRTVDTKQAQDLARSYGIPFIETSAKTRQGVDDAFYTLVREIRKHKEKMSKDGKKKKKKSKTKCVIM

What is called IC50 is the midpoint of a concentration-inhibition curve. Consider `Cc1cc(N)nc(-c2c(Cl)c3c4c(nc(OC[C@@]56CCCN5C[C@H](F)C6)nc4c2F)N([C@@H](C)c2nccnc2N)CCO3)c1C(F)(F)F` (atropisomer, axis not shown; (aS)) [Example 80, 3-((S)-1-((R)-9-(6-amino-4-methyl-3-(trifluoromethyl)pyridin-2-yl)-8-chloro-10-fluoro-2-(((2R,7aS)-2-fluorotetrahydro-1H-pyrrolizin-7a(5H)-yl)methoxy)-5,6-dihydro-4H-[1,4]oxazepino[5,6,7-de]quinazolin-4-yl)ethyl)pyrazin-2-amine], for which the IC50 is 23.6 nM on KRas; 940 nM with SW480 cells (Homo sapiens, SW480, SW480); 1200 nM in the assay with PC-9 cells (Homo sapiens, PC-9, PC9); 8.2 nM on KRas(G12V).
For `Cc1cc(N)nc(-c2c(Cl)c3c4c(nc(OC[C@@H]5C[C@@H](F)CN5C)nc4c2F)N([C@H](C)c2cccnc2N)CCO3)c1C(F)(F)F` (atropisomer, axis not shown) [Example 106, 6-((R)-4-((R)-1-(2-aminopyridin-3-yl)ethyl)-8-chloro-10-fluoro-2-(((2S,4R)-4-fluoro-1-methylpyrrolidin-2-yl)methoxy)-5,6-dihydro-4H-[1,4]oxazepino[5,6,7-de]quinazolin-9-yl)-4-methyl-5-(trifluoromethyl)pyridin-2-amine], the concentration for half-maximal inhibition (IC50) on KRas turned out to be 0.14 nM; in the assay with SW480 cells (Homo sapiens, SW480, SW480), 9.4 nM; in the assay on PC-9 cells (Homo sapiens, PC-9, PC9), 970 nM; at KRas(G12V) it was 0.13 nM.
For the molecule `Cc1cc(N)nc(-c2cc3ncnc4c3c(c2Cl)OCCN4C(c2cccnc2N)C2CC2)c1C(F)(F)F` (stereo not drawn) [Example 28, 6-(4-((2-aminopyridin-3-yl)(cyclopropyl)methyl)-8-chloro-5,6-dihydro-4H-[1,4]oxazepino[5,6,7-de]quinazolin-9-yl)-4-methyl-5-(trifluoromethyl)pyridin-2-amine], the IC50 against KRas amounted to 110 nM; in the assay on SW480 cells (Homo sapiens, SW480, SW480), 7800 nM; in the assay on PC-9 cells (Homo sapiens, PC-9, PC9) it was 17000 nM; on KRas(G12V), 8.2 nM.
As to `Cc1cc(N)nc(-c2c(Cl)c3c4c(nc(OC[C@@]56CCCN5C[C@H](F)C6)nc4c2F)N(Cc2cccnc2N)CCO3)c1C(F)(F)F` (single isomer, unassigned) [Example 42a], the IC50 against KRas amounted to 0.25 nM; in the assay with SW480 cells (SW480), 85 nM; with PC-9 cells (PC9) it was 1300 nM; on KRas(G12V) it was 0.3 nM.
`Cc1cc(N)nc(-c2c(Cl)c3c4c(nc(OC[C@@H]5CC[C@H]6COC(F)(F)CN56)nc4c2F)N([C@H](C)c2cccnc2N)CCO3)c1C(F)(F)F` (atropisomer, axis not shown; (aS)) [Example 91a, 6-((R)-4-((R)-1-(2-aminopyridin-3-yl)ethyl)-8-chloro-2-(((6S,8aS)-3,3-difluorohexahydro-1H-pyrrolo[2,1-c][1,4]oxazin-6-yl)methoxy)-10-fluoro-5,6-dihydro-4H-[1,4]oxazepino[5,6,7-de]quinazolin-9-yl)-4-methyl-5-(trifluoromethyl)pyridin-2-amine]: the concentration for half-maximal inhibition (IC50) is 0.9 nM at KRas; 3.4 nM in the assay on SW480 cells (Homo sapiens, SW480, SW480); 20000 nM in the assay with PC-9 cells (Homo sapiens, PC-9, PC9); 0.29 nM against KRas(G12V).
As for `Cc1cc(N)nc(-c2c(Cl)c3c4c(nc(OCCN5CCN(C)CC5)nc4c2F)N([C@H](C)c2cccnc2N)CCO3)c1C(F)(F)F` (atropisomer, axis not shown) [Example 135, 6-((R)-4-((R)-1-(2-aminopyridin-3-yl)ethyl)-8-chloro-10-fluoro-2-(2-(4-methylpiperazin-1-yl)ethoxy)-5,6-dihydro-4H-[1,4]oxazepino[5,6,7-de]quinazolin-9-yl)-4-methyl-5-(trifluoromethyl)pyridin-2-amine], the IC50 against KRas was found to be 0.37 nM; in the assay on SW480 cells (Homo sapiens, SW480, SW480), 390 nM; in the assay with PC-9 cells (Homo sapiens, PC-9, PC9), 1500 nM; against KRas(G12V) it was 0.08 nM.
`Cc1cc(N)nc(-c2c(Cl)c3c4c(nc(OC[C@@]56CCN5CC(F)(F)C6)nc4c2F)N([C@H](C)c2cccnc2N)CCO3)c1C(F)(F)F` (atropisomer, axis not shown) [Example 114a, 6-((R)-4-((R)-1-(2-aminopyridin-3-yl)ethyl)-8-chloro-2-(((S)-3,3-difluoro-1-azabicyclo[3.2.0]heptan-5-yl)methoxy)-10-fluoro-5,6-dihydro-4H-[1,4]oxazepino[5,6,7-de]quinazolin-9-yl)-4-methyl-5-(trifluoromethyl)pyridin-2-amine]: the half-maximal inhibitory concentration (IC50) against KRas came out at 0.39 nM; with SW480 cells (Homo sapiens, SW480, SW480), 3.2 nM; in the assay on PC-9 cells (Homo sapiens, PC-9, PC9), 7000 nM; against KRas(G12V) it was 0.24 nM.
For `Cc1cc(N)nc(-c2c(Br)c3c4c(nc(OC[C@@]56CCCN5C[C@H](F)C6)nc4c2F)N([C@H](C)c2cccnc2N)CCO3)c1C(F)(F)F` (atropisomer, axis not shown; (aS)) [Example 88, (R)-6-(4-((R)-1-(2-aminopyridin-3-yl)ethyl)-8-bromo-10-fluoro-2-(((2R,7aS)-2-fluorotetrahydro-1H-pyrrolizin-7a(5H)-yl)methoxy)-5,6-dihydro-4H-[1,4]oxazepino[5,6,7-de]quinazolin-9-yl)-4-methyl-5-(trifluoromethyl)pyridin-2-amine], in that order: 0.12 nM, 1.5 nM, 3000 nM and 0.05 nM.
For `Cc1cc(N)nc(-c2c(Cl)c3c4c(nc(OC[C@@H]5CCN5CC(F)F)nc4c2F)N([C@H](C)c2cncnc2N)CCO3)c1C(F)(F)F` (atropisomer, axis not shown) [Example 84a, 5-((R)-1-((R)-9-(6-amino-4-methyl-3-(trifluoromethyl)pyridin-2-yl)-8-chloro-2-(((S)-1-(2,2-difluoroethyl)azetidin-2-yl)methoxy)-10-fluoro-5,6-dihydro-4H-[1,4]oxazepino[5,6,7-de]quinazolin-4-yl)ethyl)pyrimidin-4-amine], in that order: 0.389 nM, 73 nM, 12000 nM and 0.14 nM.
Regarding `Cc1cc(N)nc(-c2c(Cl)c3c4c(nc(OC[C@H]5CC[C@@H]6COCCN65)nc4c2F)N([C@H](C)c2cncnc2N)CCO3)c1C(F)(F)F` (atropisomer, axis not shown; (aR)) [Example 102b, 5-((R)-1-((R)-9-(6-amino-4-methyl-3-(trifluoromethyl)pyridin-2-yl)-8-chloro-10-fluoro-2-(((6R,8aR)-hexahydro-1H-pyrrolo[2,1-c][1,4]oxazin-6-yl)methoxy)-5,6-dihydro-4H-[1,4]oxazepino[5,6,7-de]quinazolin-4-yl)ethyl)pyrimidin-4-amine], the concentration for half-maximal inhibition (IC50) worked out at 0.49 nM against KRas; 100 nM in the assay with SW480 cells (Homo sapiens, SW480, SW480); 8700 nM in the assay with PC-9 cells (Homo sapiens, PC-9, PC9); 0.17 nM at KRas(G12V).
The matching figures for `Cc1cc(N)nc(-c2c(Cl)c3c4c(nc(OCC5COCCN5C)nc4c2F)N([C@H](C)c2cccnc2N)CCO3)c1C(F)(F)F` (stereo partly drawn) [Example 140, 6-((9R)-4-((R)-1-(2-aminopyridin-3-yl)ethyl)-8-chloro-10-fluoro-2-((4-methylmorpholin-3-yl)methoxy)-5,6-dihydro-4H-[1,4]oxazepino[5,6,7-de]quinazolin-9-yl)-4-methyl-5-(trifluoromethyl)pyridin-2-amine]: 0.6 nM, 51 nM, 3800 nM and 0.17 nM.
Take `Cc1cc(N)c(F)c(-c2c(Cl)c3c4c(nc(OC[C@@]56CCCN5C[C@H](F)C6)nc4c2F)N([C@H](C)c2cccnc2N)CCO3)c1C(F)(F)F` (single isomer, unassigned) [Example 73a]: the IC50 at KRas was 0.27 nM; in the assay with SW480 cells (Homo sapiens, SW480, SW480) it was 2.6 nM; with PC-9 cells (Homo sapiens, PC-9, PC9), 2300 nM; against KRas(G12V) it was 0.11 nM.
For `Cc1cc(N)nc(-c2c(Cl)c3c4c(nc(OC[C@H]5CC[C@@H]6COC(F)(F)CN56)nc4c2F)N([C@H](C)c2cccnc2N)CCO3)c1C(F)(F)F` (atropisomer, axis not shown; (aR)) [Example 91b, 6-((R)-4-((R)-1-(2-aminopyridin-3-yl)ethyl)-8-chloro-2-(((6R,8aR)-3,3-difluorohexahydro-1H-pyrrolo[2,1-c][1,4]oxazin-6-yl)methoxy)-10-fluoro-5,6-dihydro-4H-[1,4]oxazepino[5,6,7-de]quinazolin-9-yl)-4-methyl-5-(trifluoromethyl)pyridin-2-amine], in that order: 2.2 nM, 140 nM, 6400 nM and 0.81 nM.
As to `Cc1cc(N)nc(-c2c(Cl)c3c4c(nc(OC[C@@H]5CC(F)(F)CN5C)nc4c2F)N([C@H](C)c2cccnc2N)CCO3)c1C(F)(F)F` (atropisomer, axis not shown) [Example 112, 6-((R)-4-((R)-1-(2-aminopyridin-3-yl)ethyl)-8-chloro-2-(((S)-4,4-difluoro-1-methylpyrrolidin-2-yl)methoxy)-10-fluoro-5,6-dihydro-4H-[1,4]oxazepino[5,6,7-de]quinazolin-9-yl)-4-methyl-5-(trifluoromethyl)pyridin-2-amine], the half-inhibitory concentration (IC50) on KRas stood at 0.32 nM; with SW480 cells (Homo sapiens, SW480, SW480), 1.8 nM; in the assay with PC-9 cells (Homo sapiens, PC-9, PC9), 4300 nM; against KRas(G12V), 0.2 nM.
The matching figures for `Cc1cc(N)nc(-c2c(Cl)c3c4c(nc(OC[C@H]5CC[C@@H]6COCCN65)nc4c2F)N([C@H](C)c2cccnc2N)CCO3)c1C(F)(F)F` (atropisomer, axis not shown; (aR)) [Example 87b, 6-((R)-4-((R)-1-(2-aminopyridin-3-yl)ethyl)-8-chloro-10-fluoro-2-(((6R,8aR)-hexahydro-1H-pyrrolo[2,1-c][1,4]oxazin-6-yl)methoxy)-5,6-dihydro-4H-[1,4]oxazepino[5,6,7-de]quinazolin-9-yl)-4-methyl-5-(trifluoromethyl)pyridin-2-amine]: 0.18 nM, 28 nM, 3100 nM and 0.089 nM.

Values taken from patent publication US20240383915A1, “OXAZEPINE COMPOUNDS AND USES THEREOF IN THE TREATMENT OF CANCER” (Genentech, Inc., priority 2021, published 2024).
